{
  "source": "paper PMC9386018",
  "about": "“A lymphatic-absorbed multi-targeted kinase inhibitor for myelofibrosis therapy” (Nature Communications, 2022)",
  "key": {"[1]": {"test": "Pharmacokinetic analysis of plasma after intravenous and oral dosing", "settings": "for Concentration: individual animals"}, "[2]": {"target": "Target kinase isoforms (PI3K, mTOR, RAF, MEK) (Homo sapiens, UniProt P42345)", "test": "Target kinase isoforms 10-point IC50 determination (Supplementary Fig. 7)", "assay_type": "biochemical", "settings": "mTOR", "text": "(§1) The average percent kinase inhibition from replicate data was ranked low to high, converted to a compatible identifier format, then input into Coral Human Kinome Visualization software for presentation analysis. […] Scaling of evolutionary distance for PI kinases is only relative and is based on literature analysis[62],[63]. Average percent kinome inhibition values from replicate data are supplied in Source Data file. […] Corrected data was normalized to vehicle treated control values, and dose response percent kinase activity was analyzed by non-linear regression for determination of IC50 values."}, "[3]": {"target": "Target kinase isoforms (PI3K, mTOR, RAF, MEK) (Homo sapiens, UniProt P48736)", "sequence (P48736 whole entry, canonical isoform)": "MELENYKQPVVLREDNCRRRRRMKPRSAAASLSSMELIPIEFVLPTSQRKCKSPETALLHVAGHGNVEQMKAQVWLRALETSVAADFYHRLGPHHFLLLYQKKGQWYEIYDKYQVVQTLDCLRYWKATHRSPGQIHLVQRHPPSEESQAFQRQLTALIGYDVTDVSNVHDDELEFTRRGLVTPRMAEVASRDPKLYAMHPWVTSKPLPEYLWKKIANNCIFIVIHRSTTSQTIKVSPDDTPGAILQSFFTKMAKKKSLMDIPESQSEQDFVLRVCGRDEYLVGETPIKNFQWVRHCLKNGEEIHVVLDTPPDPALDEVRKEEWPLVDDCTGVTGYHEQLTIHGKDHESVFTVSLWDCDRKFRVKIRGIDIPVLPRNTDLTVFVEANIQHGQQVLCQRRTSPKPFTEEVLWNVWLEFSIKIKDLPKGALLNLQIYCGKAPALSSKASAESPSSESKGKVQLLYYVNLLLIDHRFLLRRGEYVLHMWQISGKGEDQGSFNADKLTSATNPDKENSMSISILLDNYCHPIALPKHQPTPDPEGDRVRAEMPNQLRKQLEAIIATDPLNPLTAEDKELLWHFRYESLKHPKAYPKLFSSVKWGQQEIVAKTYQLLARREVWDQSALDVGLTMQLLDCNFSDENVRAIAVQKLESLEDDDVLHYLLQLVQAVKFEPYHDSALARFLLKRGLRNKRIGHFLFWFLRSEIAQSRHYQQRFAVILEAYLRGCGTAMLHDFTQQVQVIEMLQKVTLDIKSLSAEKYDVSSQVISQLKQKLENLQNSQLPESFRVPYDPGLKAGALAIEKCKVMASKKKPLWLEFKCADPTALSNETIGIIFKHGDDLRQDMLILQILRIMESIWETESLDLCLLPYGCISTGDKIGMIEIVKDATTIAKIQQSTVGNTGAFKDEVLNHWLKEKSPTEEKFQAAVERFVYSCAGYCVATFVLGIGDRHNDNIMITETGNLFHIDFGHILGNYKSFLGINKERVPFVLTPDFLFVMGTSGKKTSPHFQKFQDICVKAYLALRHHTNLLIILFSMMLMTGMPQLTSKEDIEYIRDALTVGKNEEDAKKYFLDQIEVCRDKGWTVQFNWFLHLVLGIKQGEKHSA", "test": "Target kinase isoforms 10-point IC50 determination (Supplementary Fig. 7)", "assay_type": "biochemical", "settings": "PI3K gamma", "text": "as §1"}, "[4]": {"target": "Target kinase isoforms (PI3K, mTOR, RAF, MEK) (Homo sapiens, UniProt P42338)", "sequence (P42338 whole entry, canonical isoform)": "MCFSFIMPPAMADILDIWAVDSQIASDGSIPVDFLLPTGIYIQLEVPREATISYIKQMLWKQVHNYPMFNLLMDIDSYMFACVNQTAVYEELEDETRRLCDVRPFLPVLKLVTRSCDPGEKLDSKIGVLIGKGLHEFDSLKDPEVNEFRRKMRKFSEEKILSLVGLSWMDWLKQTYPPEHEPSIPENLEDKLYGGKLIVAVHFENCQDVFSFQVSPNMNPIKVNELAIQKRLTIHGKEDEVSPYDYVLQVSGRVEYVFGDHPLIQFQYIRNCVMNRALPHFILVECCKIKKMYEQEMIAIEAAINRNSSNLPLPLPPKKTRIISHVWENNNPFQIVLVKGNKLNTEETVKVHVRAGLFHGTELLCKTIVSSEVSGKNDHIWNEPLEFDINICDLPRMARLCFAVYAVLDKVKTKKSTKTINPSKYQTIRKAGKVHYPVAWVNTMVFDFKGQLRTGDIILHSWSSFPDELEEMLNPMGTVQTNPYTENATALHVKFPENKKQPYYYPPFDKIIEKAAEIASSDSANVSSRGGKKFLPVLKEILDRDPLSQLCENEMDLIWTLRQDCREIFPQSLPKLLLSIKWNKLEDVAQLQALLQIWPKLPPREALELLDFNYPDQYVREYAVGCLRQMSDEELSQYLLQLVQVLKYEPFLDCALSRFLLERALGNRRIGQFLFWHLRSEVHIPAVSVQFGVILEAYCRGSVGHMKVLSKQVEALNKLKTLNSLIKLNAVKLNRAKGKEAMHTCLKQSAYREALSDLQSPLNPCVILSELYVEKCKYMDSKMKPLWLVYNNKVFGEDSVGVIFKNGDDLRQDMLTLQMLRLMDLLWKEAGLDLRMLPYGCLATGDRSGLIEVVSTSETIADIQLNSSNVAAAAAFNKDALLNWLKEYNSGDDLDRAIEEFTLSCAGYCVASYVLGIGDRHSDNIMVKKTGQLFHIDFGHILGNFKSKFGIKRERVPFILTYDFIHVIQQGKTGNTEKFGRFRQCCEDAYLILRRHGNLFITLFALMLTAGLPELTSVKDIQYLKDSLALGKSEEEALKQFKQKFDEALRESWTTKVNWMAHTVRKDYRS", "test": "Target kinase isoforms 10-point IC50 determination (Supplementary Fig. 7)", "assay_type": "biochemical", "settings": "PI3K beta", "text": "as §1"}, "[5]": {"target": "Target kinase isoforms (PI3K, mTOR, RAF, MEK) (Homo sapiens, UniProt P42336)", "sequence (P42336 whole entry, canonical isoform)": "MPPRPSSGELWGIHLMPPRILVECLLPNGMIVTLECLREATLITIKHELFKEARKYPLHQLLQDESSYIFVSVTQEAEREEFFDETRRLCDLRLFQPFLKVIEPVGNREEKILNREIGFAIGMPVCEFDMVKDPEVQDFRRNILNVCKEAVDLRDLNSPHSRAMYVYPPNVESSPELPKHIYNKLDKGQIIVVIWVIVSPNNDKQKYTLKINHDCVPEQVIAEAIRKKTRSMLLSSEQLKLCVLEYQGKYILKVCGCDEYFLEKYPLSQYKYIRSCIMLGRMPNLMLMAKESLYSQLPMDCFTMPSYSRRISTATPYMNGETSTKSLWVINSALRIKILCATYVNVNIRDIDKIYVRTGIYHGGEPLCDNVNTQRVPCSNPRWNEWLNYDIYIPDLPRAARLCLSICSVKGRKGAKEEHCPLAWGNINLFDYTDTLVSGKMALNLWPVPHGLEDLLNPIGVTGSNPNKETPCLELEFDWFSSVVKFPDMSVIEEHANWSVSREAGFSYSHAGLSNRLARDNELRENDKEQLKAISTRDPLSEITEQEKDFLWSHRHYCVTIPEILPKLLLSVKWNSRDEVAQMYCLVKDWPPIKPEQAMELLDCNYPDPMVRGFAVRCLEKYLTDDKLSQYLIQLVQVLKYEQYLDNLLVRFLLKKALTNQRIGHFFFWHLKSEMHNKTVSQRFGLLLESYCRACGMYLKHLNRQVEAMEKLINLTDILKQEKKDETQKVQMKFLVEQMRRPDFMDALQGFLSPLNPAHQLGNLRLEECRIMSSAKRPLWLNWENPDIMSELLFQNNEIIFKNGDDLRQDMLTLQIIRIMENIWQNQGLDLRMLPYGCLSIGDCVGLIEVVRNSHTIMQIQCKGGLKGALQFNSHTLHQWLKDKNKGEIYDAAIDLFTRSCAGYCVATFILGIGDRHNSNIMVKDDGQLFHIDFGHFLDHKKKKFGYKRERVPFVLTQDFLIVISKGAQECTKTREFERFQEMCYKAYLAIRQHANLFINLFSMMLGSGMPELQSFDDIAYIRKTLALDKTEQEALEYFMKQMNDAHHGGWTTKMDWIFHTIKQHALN", "test": "Target kinase isoforms 10-point IC50 determination (Supplementary Fig. 7)", "assay_type": "biochemical", "settings": "PI3K alpha", "text": "as §1"}, "[6]": {"settings": "concentration 0.495 nM, 0.000495 µM"}, "[7]": {"settings": "concentration 1.52 nM, 0.00152 µM"}, "[8]": {"settings": "concentration 4.57 nM, 0.00457 µM"}, "[9]": {"settings": "concentration 41.2 nM, 0.0412 µM"}},
  "note": "Several values for one entry are separate records, joined by “and”; a condition that tells them apart may be missing. Equal entries are not always repeated.",
  "data": [
    {"smiles": "O=C(NOCCOCCOCCOCCC(=O)N1CCN(c2cnc3ccc(-c4cnc(Cl)c(NS(=O)(=O)c5ccc(F)cc5)c4)cc3n2)CC1)c1ccc(F)c(F)c1Nc1ccc(I)cc1F", "note": "[LP-182, N-(2-(2-(2-(3-(4-(7-(6-chloro-5-((4-fluorophenyl)sulfonamido)pyridin-3-yl)quinoxalin-2-yl)piperazin-1-yl)-3-oxopropoxy)ethoxy)ethoxy)ethoxy)-3,4-difluoro-2-((2-fluoro-4-iodophenyl)amino)benzamide]", "values": [
      {"measurement": "concentration at 1 h", "setting": "[1]; female, CD-1, mouse, plasma, po, 400 mg kg^−1, Concentration, Supplementary Figure 6a, Time 1 h, individual replicates", "value": 1240, "unit": "ng/mL"},
      {"measurement": "half-life", "setting": "[1]; female, CD-1, mouse, plasma, po, 400 mg/kg", "value": 12.7, "unit": "h"},
      {"measurement": "plasma level maintained over 24 h", "setting": "[1]; mice, after oral LP-182 400 mg kg^−1, analyte = label", "value": "~ 300 ng mL^-1"},
      {"measurement": "Concentration", "setting": "[1]; mice, plasma, single i.v. LP-182 15 mg kg^−1, 0.167 h, analyte = label", "value": "11100 ng/mL and 8270 ng/mL and 5220 ng/mL"},
      {"measurement": "Concentration", "setting": "[1]; mice, plasma, single i.v. LP-182 15 mg kg^−1, 0.5 h, analyte = label", "value": "807 ng/mL and 646 ng/mL"},
      {"measurement": "Concentration", "setting": "[1]; mice, plasma, single i.v. LP-182 15 mg kg^−1, 1 h, analyte = label", "value": "451 ng/mL and 857 ng/mL"},
      {"measurement": "Concentration", "setting": "[1]; mice, plasma, single i.v. LP-182 15 mg kg^−1, 2 h, analyte = label", "value": "275 ng/mL and 179 ng/mL"},
      {"measurement": "Concentration", "setting": "[1]; mice, plasma, single i.v. LP-182 15 mg kg^−1, 4 h, analyte = label", "value": "141 ng/mL and 75.9 ng/mL"},
      {"measurement": "Concentration", "setting": "[1]; mice, plasma, single i.v. LP-182 15 mg kg^−1, 7 h, analyte = label", "value": "51.4 ng/mL and 34.3 ng/mL"},
      {"measurement": "Concentration", "setting": "[1]; mice, plasma, single i.v. LP-182 15 mg kg^−1, 16 h, analyte = label", "value": "30.6 ng/mL and 29.3 ng/mL and 5.58 ng/mL"},
      {"measurement": "Concentration", "setting": "[1]; mice, plasma, single i.v. LP-182 15 mg kg^−1, 24 h, analyte = label", "value": "7.68 ng/mL and 8.28 ng/mL"},
      {"measurement": "Concentration", "setting": "[1]; mice, plasma, single p.o. LP-182 400 mg kg^−1, 0.167 h, analyte = label", "value": "731 ng/mL and 1660 ng/mL and 900 ng/mL"},
      {"measurement": "Concentration", "setting": "[1]; mice, plasma, single p.o. LP-182 400 mg kg^−1, 0.5 h, analyte = label", "value": "2150 ng/mL and 2630 ng/mL"},
      {"measurement": "Concentration", "setting": "[1]; mice, plasma, single p.o. LP-182 400 mg kg^−1, 1 h, analyte = label", "value": "1580 ng/mL and 1950 ng/mL"},
      {"measurement": "Concentration", "setting": "[1]; mice, plasma, single p.o. LP-182 400 mg kg^−1, 2 h, analyte = label", "value": "424 ng/mL and 145 ng/mL and 74.1 ng/mL"},
      {"measurement": "Concentration", "setting": "[1]; mice, plasma, single p.o. LP-182 400 mg kg^−1, 4 h, analyte = label", "value": "146 ng/mL and 522 ng/mL and 339 ng/mL"},
      {"measurement": "Concentration", "setting": "[1]; mice, plasma, single p.o. LP-182 400 mg kg^−1, 7 h, analyte = label", "value": "331 ng/mL and 97.6 ng/mL and 1560 ng/mL"},
      {"measurement": "Concentration", "setting": "[1]; mice, plasma, single p.o. LP-182 400 mg kg^−1, 16 h, analyte = label", "value": "79.2 ng/mL and 205 ng/mL and 265 ng/mL"},
      {"measurement": "Concentration", "setting": "[1]; mice, plasma, single p.o. LP-182 400 mg kg^−1, 24 h, analyte = label", "value": "401 ng/mL and 114 ng/mL and 295 ng/mL"},
      {"measurement": "activity at 0.000495 µM", "setting": "[2]; concentration 0.495 nM", "value": 95, "unit": "%"},
      {"measurement": "Kinase Activity (%) mTOR", "setting": "[2]; [6]", "value": "99% and 98% and 101% and 94% and 96%"},
      {"measurement": "activity at 0.00152 µM", "setting": "[2]; concentration 1.52 nM", "value": 97, "unit": "%"},
      {"measurement": "Kinase Activity (%) mTOR", "setting": "[2]; [7]", "value": "99% and 100% and 94%"},
      {"measurement": "activity at 0.00457 µM", "setting": "[2]; concentration 4.57 nM", "value": 91, "unit": "%"},
      {"measurement": "Kinase Activity (%) mTOR", "setting": "[2]; [8]", "value": "92% and 94% and 87% and 88%"},
      {"measurement": "activity at 0.0412 µM", "setting": "[2]; concentration 41.2 nM", "value": 52, "unit": "%"},
      {"measurement": "Kinase Activity (%) mTOR", "setting": "[2]; [9]", "value": "63% and 57% and 47%"},
      {"measurement": "activity at 0.123 µM", "setting": "[2]; concentration 123 nM", "value": 29, "unit": "%"},
      {"measurement": "Kinase Activity (%) mTOR", "setting": "[2]; concentration 123 nM, 0.123 µM", "value": "30% and 32% and 31%"},
      {"measurement": "activity at […]", "setting": "[2]; concentration 370 nM", "value": 13, "unit": "%"},
      {"measurement": "Kinase Activity (%) mTOR", "setting": "[2]; concentration 1110 nM, 1.11 µM", "value": "4% and 3% and 5% and 1% and 2%"},
      {"measurement": "Kinase Activity (%) mTOR", "setting": "[2]; concentration 3330 nM, 3.33 µM", "value": "0% and -1% and -2%"},
      {"measurement": "Kinase Activity (%) mTOR", "setting": "[2]; concentration 10000 nM, 10 µM", "value": "2% and -1% and 1%"},
      {"measurement": "activity at 0.123 µM", "setting": "[3]; concentration 123 nM", "value": 20, "unit": "%"},
      {"measurement": "activity at […]", "setting": "[3]; concentration 370 nM", "value": 6, "unit": "%"},
      {"measurement": "Kinase Activity (%) PI3K gamma", "setting": "[3]; concentration 1110 nM, 1.11 µM", "value": "1% and 3% and 4% and 0%"},
      {"measurement": "Kinase Activity (%) PI3K gamma", "setting": "[3]; concentration 3330 nM, 3.33 µM", "value": "0% and 1%"},
      {"measurement": "Kinase Activity (%) PI3K gamma", "setting": "[3]; concentration 10000 nM, 10 µM", "value": "4% and 0% and 2%"},
      {"measurement": "Kinase Activity (%) PI3K beta", "setting": "[4]; [6]", "value": "105% and 85% and 110% and 102% and 121% and 113%"},
      {"measurement": "Kinase Activity (%) PI3K beta", "setting": "[4]; [7]", "value": "95% and 99% and 101% and 103% and 119% and 118%"},
      {"measurement": "Kinase Activity (%) PI3K beta", "setting": "[4]; [8]", "value": "89% and 94% and 105% and 106% and 117% and 114%"},
      {"measurement": "Kinase Activity (%) PI3K beta", "setting": "[4]; [9]", "value": "80% and 74% and 95% and 101% and 98% and 107%"},
      {"measurement": "Kinase Activity (%) PI3K beta", "setting": "[4]; concentration 123 nM, 0.123 µM", "value": "63% and 51% and 71% and 72% and 84%"},
      {"measurement": "activity at 3.33 µM", "setting": "[4]; concentration 3330 nM", "value": 16, "unit": "%"},
      {"measurement": "Kinase Activity (%) PI3K beta", "setting": "[4]; concentration 3330 nM, 3.33 µM", "value": "24% and 12% and 13% and 14%"},
      {"measurement": "Kinase Activity (%) PI3K beta", "setting": "[4]; concentration 10000 nM, 10 µM", "value": "13% and 5% and 3%"},
      {"measurement": "Kinase Activity (%) PI3K alpha", "setting": "[5]; concentration 0.0188 nM, 18.8 pM", "value": "97% and 99% and 100% and 98% and 76% and 90%"},
      {"measurement": "Kinase Activity (%) PI3K alpha", "setting": "[5]; concentration 0.0564 nM, 56.4 pM", "value": "93% and 98% and 99% and 108% and 106% and 80% and 82% and 89%"},
      {"measurement": "Kinase Activity (%) PI3K alpha", "setting": "[5]; [6]", "value": 79, "unit": "%"},
      {"measurement": "activity at 0.00457 µM", "setting": "[5]; concentration 4.57 nM", "value": 27, "unit": "%"},
      {"measurement": "Kinase Activity (%) PI3K alpha", "setting": "[5]; [9]", "value": "4% and 6% and 8% and 9% and 5% and 10% and 7%"},
      {"measurement": "Kinase Activity (%) PI3K alpha", "setting": "[5]; concentration 123 nM, 0.123 µM", "value": "1% and 3% and 4% and 2% and 6%"},
      {"measurement": "Kinase Activity (%) PI3K alpha", "setting": "[5]; concentration 1110 nM, 1.11 µM", "value": "0% and 1%"},
      {"measurement": "Kinase Activity (%) PI3K alpha", "setting": "[5]; concentration 3330 nM, 3.33 µM", "value": "1% and 0% and 2%"},
      {"measurement": "Kinase Activity (%) PI3K alpha", "setting": "[5]; concentration 10000 nM, 10 µM", "value": "5% and 0% and 3% and 1%"}
    ]}
  ]
}
